{"source": "ChEMBL document CHEMBL1201862", "about": "“PubChem BioAssay data set” (2004)", "key": {"[1]": {"target": "Beta-lactamase (Salmonella choleraesuis (strain SC-B67), UniProt Q5J463)", "sequence (Q5J463 whole entry)": "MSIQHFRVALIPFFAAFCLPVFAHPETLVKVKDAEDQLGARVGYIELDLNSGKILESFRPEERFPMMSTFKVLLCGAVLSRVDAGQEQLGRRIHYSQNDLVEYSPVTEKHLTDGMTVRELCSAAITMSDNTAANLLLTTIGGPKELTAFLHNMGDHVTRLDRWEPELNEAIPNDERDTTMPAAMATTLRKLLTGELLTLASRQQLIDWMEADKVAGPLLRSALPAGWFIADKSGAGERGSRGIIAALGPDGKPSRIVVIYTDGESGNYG", "experiment": "Epi-absorbance-based counterscreen for selective VIM-2 inhibitors: dose response biochemical high throughput screening assay to identify inhibitors of TEM-1 serine-beta-lactamase."}, "[2]": {"target": "T1, Beta-lactamase (Pseudomonas aeruginosa, UniProt Q79MP6)", "T1 sequence (Q79MP6 whole entry)": "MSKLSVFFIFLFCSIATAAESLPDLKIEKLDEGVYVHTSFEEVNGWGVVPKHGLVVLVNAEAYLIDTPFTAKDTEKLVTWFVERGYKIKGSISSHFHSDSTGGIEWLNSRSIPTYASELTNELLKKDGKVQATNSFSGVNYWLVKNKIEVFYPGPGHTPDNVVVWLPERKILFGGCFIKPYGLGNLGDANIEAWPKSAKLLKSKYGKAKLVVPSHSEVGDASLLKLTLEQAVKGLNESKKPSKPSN", "experiment": "IMP-1 metallo-beta-lactamase inhibitors, dose response, selectivity assay for VIM-2 inhibitor project, biochemical, epi-absorbance (AID 1920)"}, "[3]": {"target": "T1, Beta-lactamase", "experiment": "[…] counterscreen for selective VIM-2 inhibitors: dose response biochemical high throughput screening assay to identify inhibitors of IMP-1 metallo-beta-lactamase."}, "[4]": {"test_system": "H9c2", "experiment": "cells", "assay_type": "functional, cell-based", "settings": "Rattus norvegicus, H9c2, Myocardium"}, "[5]": {"target": "T2, Small ubiquitin-related modifier 2 (Homo sapiens, UniProt P61956)", "T2 sequence (P61956 whole entry)": "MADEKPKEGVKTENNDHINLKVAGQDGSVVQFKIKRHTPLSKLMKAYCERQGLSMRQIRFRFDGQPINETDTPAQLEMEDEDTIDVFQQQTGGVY", "experiment": "SUMO2–SIM peptide binding inhibitors, dose response, selectivity assay for SUMO1 interaction inhibitor project, biochemical, fluorescence polarization, uHTS hits (AID 624385)", "assay_type": "functional", "settings": "read-out: IC50_Mean"}, "[6]": {"target": "T3, Small ubiquitin-related modifier 1 (Homo sapiens, UniProt P63165)", "T3 sequence (P63165 whole entry)": "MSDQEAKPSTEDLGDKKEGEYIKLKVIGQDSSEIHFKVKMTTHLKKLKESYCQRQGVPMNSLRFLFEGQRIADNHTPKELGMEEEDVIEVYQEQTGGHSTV", "experiment": "inhibitors of SUMO1 peptide binding, dose response, biochemical, fluorescence polarization, uHTS hits (AID 624382)", "assay_type": "functional", "settings": "read-out: IC50_Mean"}, "[7]": {"target": "T2, Small ubiquitin-related modifier 2", "experiment": "inhibitors of SUMO2 protein-protein interaction, dose response, selectivity assay for SUMO1 interaction inhibitor project, biochemical, FRET, human SUMO2, uHTS hits (AID 624384)", "assay_type": "functional", "settings": "read-out: IC50_Mean"}, "[8]": {"target": "T3, Small ubiquitin-related modifier 1", "experiment": "inhibitors of SUMO1 partner interactions, dose response, biochemical, FRET (AID 624383)", "assay_type": "functional", "settings": "read-out: IC50_Mean"}, "[9]": {"target": "Long-chain-fatty-acid--AMP ligase FadD28 (Mycobacterium tuberculosis, UniProt P9WQ59)", "sequence (P9WQ59 whole entry)": "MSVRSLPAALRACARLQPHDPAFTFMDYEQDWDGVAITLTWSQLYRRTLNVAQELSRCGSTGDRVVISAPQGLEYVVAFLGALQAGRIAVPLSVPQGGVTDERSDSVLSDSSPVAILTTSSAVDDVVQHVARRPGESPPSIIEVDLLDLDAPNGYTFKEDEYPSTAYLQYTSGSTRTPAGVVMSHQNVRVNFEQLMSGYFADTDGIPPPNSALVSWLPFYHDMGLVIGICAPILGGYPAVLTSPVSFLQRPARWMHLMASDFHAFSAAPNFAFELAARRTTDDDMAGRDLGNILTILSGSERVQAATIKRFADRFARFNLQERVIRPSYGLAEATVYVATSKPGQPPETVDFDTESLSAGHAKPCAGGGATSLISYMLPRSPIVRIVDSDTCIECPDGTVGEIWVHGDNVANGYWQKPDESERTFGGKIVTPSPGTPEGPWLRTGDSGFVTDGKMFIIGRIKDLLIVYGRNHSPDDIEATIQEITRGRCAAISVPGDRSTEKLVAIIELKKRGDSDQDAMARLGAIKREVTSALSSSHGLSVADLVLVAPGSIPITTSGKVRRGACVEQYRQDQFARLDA", "experiment": "Fluorescence polarization aasay to screen for inhibitors that compete for the binding of FadD28 to a bisubstrate Measured in Biochemical System Using Plate Reader - 2147-01_Inhibitor_Dose_CherryPick_Activity.", "assay_type": "functional, Mycobacterium tuberculosis H37Rv"}, "[10]": {"target": "ADP-ribosylation factor GTPase-activating protein 1 (Rattus norvegicus, UniProt Q62848)", "sequence (Q62848 whole entry)": "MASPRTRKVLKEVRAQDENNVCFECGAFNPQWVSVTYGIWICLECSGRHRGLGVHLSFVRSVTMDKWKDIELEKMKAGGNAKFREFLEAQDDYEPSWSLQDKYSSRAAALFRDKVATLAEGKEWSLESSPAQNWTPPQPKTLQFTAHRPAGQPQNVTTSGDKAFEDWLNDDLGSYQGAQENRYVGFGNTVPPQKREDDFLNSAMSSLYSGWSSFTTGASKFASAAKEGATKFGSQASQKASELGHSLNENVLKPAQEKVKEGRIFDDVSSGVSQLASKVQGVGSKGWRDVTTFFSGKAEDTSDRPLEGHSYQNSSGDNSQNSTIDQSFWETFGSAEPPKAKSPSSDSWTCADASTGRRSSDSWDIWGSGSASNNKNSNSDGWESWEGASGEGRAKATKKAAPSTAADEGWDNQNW", "experiment": "Fluorescence polarization-based biochemical high throughput dose response screening assay to identify inhibitors of ADP-ribosylation factor GTPase activating protein 1 (ARFGAP1).", "assay_type": "functional"}, "[11]": {"target": "Arf-GAP with SH3 domain, ANK repeat and PH domain-containing protein 1 (Homo sapiens, UniProt Q9ULH1)", "sequence (Q9ULH1 whole entry, the tested form may be a part)": "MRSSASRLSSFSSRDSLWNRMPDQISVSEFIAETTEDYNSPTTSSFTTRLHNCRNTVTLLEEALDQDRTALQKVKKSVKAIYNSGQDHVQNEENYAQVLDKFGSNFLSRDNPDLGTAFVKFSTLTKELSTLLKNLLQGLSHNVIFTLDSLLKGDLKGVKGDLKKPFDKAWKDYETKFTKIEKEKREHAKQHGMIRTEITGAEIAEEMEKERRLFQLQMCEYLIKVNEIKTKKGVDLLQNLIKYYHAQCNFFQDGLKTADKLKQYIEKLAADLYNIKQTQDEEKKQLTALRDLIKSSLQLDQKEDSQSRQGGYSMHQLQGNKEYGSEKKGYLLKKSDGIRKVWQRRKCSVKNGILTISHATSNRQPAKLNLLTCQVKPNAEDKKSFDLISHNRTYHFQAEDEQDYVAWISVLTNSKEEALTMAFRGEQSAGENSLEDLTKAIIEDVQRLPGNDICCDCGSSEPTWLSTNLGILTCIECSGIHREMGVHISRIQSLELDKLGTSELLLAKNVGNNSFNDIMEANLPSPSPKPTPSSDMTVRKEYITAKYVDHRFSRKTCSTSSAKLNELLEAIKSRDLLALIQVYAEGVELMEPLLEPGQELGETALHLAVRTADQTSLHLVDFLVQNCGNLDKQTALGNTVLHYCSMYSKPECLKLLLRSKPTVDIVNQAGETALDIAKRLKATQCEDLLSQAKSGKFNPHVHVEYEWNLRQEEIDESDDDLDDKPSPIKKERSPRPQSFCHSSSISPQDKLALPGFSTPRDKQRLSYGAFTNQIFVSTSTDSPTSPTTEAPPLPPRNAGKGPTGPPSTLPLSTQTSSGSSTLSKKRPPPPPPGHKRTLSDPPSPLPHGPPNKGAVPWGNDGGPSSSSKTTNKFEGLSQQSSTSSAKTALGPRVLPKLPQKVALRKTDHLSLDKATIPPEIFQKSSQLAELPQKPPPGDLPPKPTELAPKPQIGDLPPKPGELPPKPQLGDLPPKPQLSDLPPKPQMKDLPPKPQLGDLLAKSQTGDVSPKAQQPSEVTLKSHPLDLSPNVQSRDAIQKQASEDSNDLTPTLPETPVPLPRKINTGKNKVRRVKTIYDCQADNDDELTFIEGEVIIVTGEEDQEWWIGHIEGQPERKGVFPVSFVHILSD", "assay_type": "functional"}, "[12]": {"target": "Ras and Rab interactor 1/Tyrosine-protein kinase ABL1 (Homo sapiens, UniProt P00519+Q13671)", "sequence (P00519 whole entry)": "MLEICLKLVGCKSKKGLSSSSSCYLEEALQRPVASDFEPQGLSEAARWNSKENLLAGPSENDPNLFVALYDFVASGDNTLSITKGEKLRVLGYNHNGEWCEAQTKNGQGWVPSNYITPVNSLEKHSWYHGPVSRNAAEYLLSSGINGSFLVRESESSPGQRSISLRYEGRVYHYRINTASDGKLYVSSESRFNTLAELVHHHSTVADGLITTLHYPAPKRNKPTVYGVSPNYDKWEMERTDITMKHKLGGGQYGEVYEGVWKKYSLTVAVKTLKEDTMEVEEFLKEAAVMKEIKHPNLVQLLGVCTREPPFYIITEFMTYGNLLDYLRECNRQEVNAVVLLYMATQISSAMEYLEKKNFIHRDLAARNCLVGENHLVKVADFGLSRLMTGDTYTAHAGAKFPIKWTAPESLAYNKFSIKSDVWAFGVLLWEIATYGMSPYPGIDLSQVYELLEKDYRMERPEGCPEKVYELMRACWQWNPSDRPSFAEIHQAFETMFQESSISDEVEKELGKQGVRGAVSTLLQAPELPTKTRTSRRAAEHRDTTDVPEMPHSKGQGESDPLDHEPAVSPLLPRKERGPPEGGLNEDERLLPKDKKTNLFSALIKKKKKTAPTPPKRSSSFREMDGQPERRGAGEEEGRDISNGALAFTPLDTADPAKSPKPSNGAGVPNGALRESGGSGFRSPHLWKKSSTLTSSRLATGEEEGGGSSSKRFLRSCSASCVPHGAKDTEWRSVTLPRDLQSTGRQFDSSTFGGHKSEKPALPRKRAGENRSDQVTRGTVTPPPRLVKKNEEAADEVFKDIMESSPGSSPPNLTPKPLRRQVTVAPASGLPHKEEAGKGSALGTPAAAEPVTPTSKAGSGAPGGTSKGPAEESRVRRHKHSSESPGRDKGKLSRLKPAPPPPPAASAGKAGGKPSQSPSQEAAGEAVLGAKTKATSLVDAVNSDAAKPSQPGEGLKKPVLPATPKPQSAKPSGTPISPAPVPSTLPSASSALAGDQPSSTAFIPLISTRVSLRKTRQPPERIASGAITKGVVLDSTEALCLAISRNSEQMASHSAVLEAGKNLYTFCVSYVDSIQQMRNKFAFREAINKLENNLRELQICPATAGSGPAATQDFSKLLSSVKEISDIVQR", "sequence (Q13671 whole entry)": "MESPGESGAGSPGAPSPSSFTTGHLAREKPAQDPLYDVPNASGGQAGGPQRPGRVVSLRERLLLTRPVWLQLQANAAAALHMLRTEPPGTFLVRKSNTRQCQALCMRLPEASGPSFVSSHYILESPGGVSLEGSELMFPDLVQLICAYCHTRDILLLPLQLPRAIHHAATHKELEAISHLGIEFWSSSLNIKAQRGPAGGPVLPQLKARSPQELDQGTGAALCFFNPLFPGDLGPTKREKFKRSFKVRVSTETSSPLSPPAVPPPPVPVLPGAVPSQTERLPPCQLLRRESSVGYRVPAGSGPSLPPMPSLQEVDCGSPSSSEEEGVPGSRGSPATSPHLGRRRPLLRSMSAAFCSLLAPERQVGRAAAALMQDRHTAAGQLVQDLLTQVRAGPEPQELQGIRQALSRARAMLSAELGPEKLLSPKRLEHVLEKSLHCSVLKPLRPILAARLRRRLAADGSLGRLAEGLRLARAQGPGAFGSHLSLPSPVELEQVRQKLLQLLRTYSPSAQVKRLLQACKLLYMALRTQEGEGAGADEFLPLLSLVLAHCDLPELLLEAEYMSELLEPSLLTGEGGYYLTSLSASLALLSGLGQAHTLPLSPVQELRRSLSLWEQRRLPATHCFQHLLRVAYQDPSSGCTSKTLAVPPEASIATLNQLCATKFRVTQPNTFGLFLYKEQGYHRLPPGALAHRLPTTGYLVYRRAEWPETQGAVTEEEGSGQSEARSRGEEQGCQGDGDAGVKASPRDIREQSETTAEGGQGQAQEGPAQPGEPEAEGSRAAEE", "assay_type": "functional"}, "[13]": {"experiment": "HeLa cell cytotoxicity, dose response, cytotoxicity control for MgcRacGAP inhibitor project (AID 624300)", "assay_type": "functional"}, "[14]": {"target": "T4, Rac GTPase-activating protein 1 (Homo sapiens, UniProt Q9H0H5)", "T4 sequence (Q9H0H5 whole entry)": "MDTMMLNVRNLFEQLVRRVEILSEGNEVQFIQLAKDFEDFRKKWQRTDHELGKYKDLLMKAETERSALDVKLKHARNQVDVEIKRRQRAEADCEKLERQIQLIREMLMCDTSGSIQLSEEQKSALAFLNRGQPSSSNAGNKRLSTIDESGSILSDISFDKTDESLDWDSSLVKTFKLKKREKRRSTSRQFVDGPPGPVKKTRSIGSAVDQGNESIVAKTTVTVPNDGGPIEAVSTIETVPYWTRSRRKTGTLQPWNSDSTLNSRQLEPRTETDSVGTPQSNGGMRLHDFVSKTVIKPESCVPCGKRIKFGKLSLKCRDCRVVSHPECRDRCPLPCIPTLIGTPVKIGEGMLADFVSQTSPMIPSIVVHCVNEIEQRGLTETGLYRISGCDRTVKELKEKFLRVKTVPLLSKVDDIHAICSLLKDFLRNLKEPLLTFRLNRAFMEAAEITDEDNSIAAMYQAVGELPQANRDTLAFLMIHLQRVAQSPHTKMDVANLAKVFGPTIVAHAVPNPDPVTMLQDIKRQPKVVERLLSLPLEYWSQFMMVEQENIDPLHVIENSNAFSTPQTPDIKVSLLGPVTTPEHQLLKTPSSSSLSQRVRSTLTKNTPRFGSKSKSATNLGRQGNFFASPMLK", "experiment": "MgcRacGAP GTPase-activating activity inhibitors, confirmation, biochemical, ADP Hunter fluorescence, primary and confirmatory (AID 624330)", "assay_type": "functional"}, "[15]": {"target": "T5, DNA repair protein RAD52 homolog (Homo sapiens, UniProt P43351)", "T5 sequence (P43351 whole entry)": "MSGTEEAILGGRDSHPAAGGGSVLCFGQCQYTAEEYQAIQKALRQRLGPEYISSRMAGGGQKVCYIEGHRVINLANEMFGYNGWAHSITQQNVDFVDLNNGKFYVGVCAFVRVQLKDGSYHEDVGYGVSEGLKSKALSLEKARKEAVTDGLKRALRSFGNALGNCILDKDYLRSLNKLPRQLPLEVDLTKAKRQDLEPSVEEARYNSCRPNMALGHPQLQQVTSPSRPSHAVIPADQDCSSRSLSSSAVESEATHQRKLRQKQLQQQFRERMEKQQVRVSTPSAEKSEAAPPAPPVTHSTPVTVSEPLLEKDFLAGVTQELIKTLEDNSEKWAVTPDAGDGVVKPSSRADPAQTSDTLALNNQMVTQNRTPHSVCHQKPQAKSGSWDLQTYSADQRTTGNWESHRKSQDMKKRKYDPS", "assay_type": "functional, biochemical"}, "[16]": {"target": "Protein Wnt-3a (Mus musculus, UniProt P27467)", "experiment": "Wnt3a-driven reporter signaling inhibition, dose response, selectivity assay for Gli-SUFU antagonist project, Wnt-LIGHT cells, luminescence (AID 651570);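 also: Wnt-LIGHT reporter cells stimulated with conditioned medium from Wnt3a-producing cells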", "assay_type": "functional", "settings": "read-out: IC50_Mean"}, "[17]": {"target": "T6, Low molecular weight phosphotyrosine protein phosphatase (Homo sapiens, UniProt P24666)", "T6 sequence (P24666 whole entry)": "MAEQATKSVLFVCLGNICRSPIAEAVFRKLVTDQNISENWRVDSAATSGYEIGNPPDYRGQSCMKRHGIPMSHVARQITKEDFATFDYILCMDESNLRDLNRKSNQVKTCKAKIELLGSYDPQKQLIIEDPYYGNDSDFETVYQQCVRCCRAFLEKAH", "assay_type": "functional", "settings": "read-out: IC50_Mean"}, "[18]": {"target": "T6, Low molecular weight phosphotyrosine protein phosphatase", "assay_type": "functional", "settings": "read-out: IC50_Mean", "remark": "listed apart in the source"}, "[19]": {"target": "T7, Ubiquitin-conjugating enzyme E2 N (Homo sapiens, UniProt P61088)", "T7 sequence (P61088 whole entry)": "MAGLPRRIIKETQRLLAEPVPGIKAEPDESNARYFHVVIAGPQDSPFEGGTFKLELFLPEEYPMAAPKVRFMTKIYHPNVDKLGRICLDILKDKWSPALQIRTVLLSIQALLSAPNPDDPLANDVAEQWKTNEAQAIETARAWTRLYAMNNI", "assay_type": "functional"}, "[20]": {"target": "Interleukin-8 (Homo sapiens, UniProt P10145)", "sequence (P10145 whole entry)": "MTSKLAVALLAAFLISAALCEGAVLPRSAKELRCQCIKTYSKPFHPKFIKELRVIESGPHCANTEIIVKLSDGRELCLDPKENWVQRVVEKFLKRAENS", "experiment": "Dose Response confirmation of uHTS small molecule hits for cystic fibrosis induced NFkb Inhibitors in a PAF-induced IL8 counterscreen.", "assay_type": "functional", "settings": "read-out: IC50_Mean"}}, "note": "Calls of active or inactive are those of the source."}
{"smiles": "Cc1ccccc1C(=O)Nc1nnc(SCC(=O)NCc2ccco2)s1", "values": [{"measurement": "IC50", "setting": "[1]", "result": "> 59.6 µM (inactive)"}, {"measurement": "IC50", "setting": "[2]", "result": "> 59.6 µM (inactive)"}, {"measurement": "IC50", "setting": "[3]", "result": "> 59.6 µM (inactive)"}]}
{"smiles": "Nc1cc2nc(O)c3ccccc3c2cc1[N+](=O)[O-]", "values": [{"measurement": "IC50", "setting": "[4]", "result": "> 79 µM (inactive)"}, {"measurement": "IC50", "setting": "[5]", "result": "45.7 µM (inactive)"}, {"measurement": "IC50", "setting": "[6]", "result": "1.02 µM (active)"}, {"measurement": "IC50", "setting": "[7]", "result": "> 66 µM (inactive)"}, {"measurement": "IC50", "setting": "[8]", "result": "51.8 µM (inactive)"}]}
{"smiles": "CCn1ncc(Br)c1C(=O)Nc1ccc(OC(F)(F)F)cc1", "values": [{"measurement": "AC50", "setting": "[9]", "result": "52 µM (active)"}]}
{"smiles": "CC(=O)c1cccc(NC(=O)c2cccc3c(-c4cccnc4)coc23)c1", "values": [{"measurement": "IC50", "setting": "[10]", "result": "129 µM (inactive)"}, {"measurement": "IC50", "setting": "[11]", "result": "79.4 µM (inactive)"}]}
{"smiles": "COc1cccc2c3cccc(OC)c3c3[nH]cnc3c12", "values": [{"measurement": "IC50", "setting": "[12]", "result": "15.8 µM (inactive)"}, {"measurement": "CC50", "setting": "[13]", "result": "43.9 µM (active)"}, {"measurement": "IC50", "setting": "[14]", "result": "82.8 µM (active)"}, {"measurement": "AC50", "setting": "[15]", "result": "0.513 µM (active)"}]}
{"smiles": "C/C(=N\\NC(=O)C(=O)Nc1ccc(C)c(Cl)c1)c1ccncc1", "values": [{"measurement": "IC50", "setting": "[16]", "result": "0.909 µM (active)"}]}
{"smiles": "COCCNc1nc(NCc2ccc(C)cc2C)c2sccc2n1", "values": [{"measurement": "IC50", "setting": "[17]", "result": "15.6 µM (active)"}, {"measurement": "IC50", "setting": "[18]", "result": "13.8 µM (active)"}]}
{"smiles": "CN(C)c1ccnc2sc3c(=O)n(Cc4ccccc4)cnc3c12", "values": [{"measurement": "IC50", "setting": "[19]", "result": "> 20 µM (inactive)"}, {"measurement": "IC50", "setting": "[20]", "result": "12.2 µM (inactive)"}]}
